# Data published in patent US12728107B2, “Sirtuin activator, and method for activating sirtuin” (Yuki Gosei Kogyo Co., Ltd., priority 2020, dated 2026).
# Like-named read-outs stand apart in the source and are kept apart here.
# Tests used:
# [1] = tested on: Sirt1 gene; details: differentiated C2C12 cells; β-alanine 500 μM and 1 mM; added twice, 24 h apart; vs 1×PBS control; FIG. 1
# [2] = tested on: senescence-associated β-galactosidase (SA-β-Gal) in skin dermal fibroblasts; test: Senescence marker SA-β-Gal activity (C12FDG fluorescence) in etoposide-treated skin dermal fibroblasts; details: FIG. 4
# [3] = tested on: Sirt1 gene; details: skin dermal cells; culture supernatant of C2C12 cells treated with β-alanine; FIG. 3
# Experimental: (§1) In this example, the activation of the sirtuin gene in skin dermal cells via a substance secreted from muscle cells (C2C12 cells) by β-alanine was examined.
# (§2) C2C12 cells were seeded in 5-mL Dish at 2.0×10^5 cells/well, and 48 hours later, the medium was replaced with DMEM medium containing 2% HS to induce differentiation. The culture medium was changed every 2 days to a new medium, and differentiation was induced. Then, the medium was changed every 2 days and β-alanine was added, and the culture supernatant was collected after 8 days of culture. 1×PBS was added to the control cells. After 24 hours of the addition, sample was secondary added, and the culture supernatant was collected after 24 hours of the second addition of sample.
# (§3) Specifically, cells were seeded at a concentration of 3.0×10^4 cells/mL in a 5 mL dish.
# (§4) RNA extraction from cells, cDNA synthesis, and RT-PCR were performed by the same procedure as in Example 2. The sequences of the used primers of the human sirt6 gene are as follows.
# [4] = tested on: Sirt6 gene; details: skin dermal cells; culture supernatant of C2C12 cells treated with β-alanine; FIG. 3
# Experimental: as §1, §2, §3, §4
# [5] = tested on: Sirt3 gene; details: skin dermal cells; culture supernatant of C2C12 cells treated with β-alanine; FIG. 3
# Experimental: as §1, §2, §3, §4
# [6] = tested on: Sirt3 gene; details: differentiated C2C12 cells; β-alanine 500 μM and 1 mM; added twice, 24 h apart; vs 1×PBS control; FIG. 1
# [7] = tested on: Sirt1 gene; details: HaCaT cells; β-alanine 500 μM and 10 mM; added twice, 24 h apart; vs 1×PBS control; FIG. 2
# Experimental: (§5) In this example, a transcription of the Sirt1 gene and Sirt3 gene in HaCaT cells, a human epidermal keratinocyte cell line, was measured.
# (§6) HaCaT cells were seeded in 6-well plates at 6.0×10^4 cells/well. After 24 hours, β-alanine was added to the cells, and 1×PBS was added to the control cells. After 24 hours of the addition, sample was secondary added, and the medium was aspirated after 24 hours of the second addition of sample. Then, 1×PBS was added at 1 mL/well to wash the cells. RNA extraction from cells, cDNA synthesis, and RT-PCR were performed by the same procedure as in Example 1. The sequences of the used primers of the human sirtuin genes are as follows.
# [8] = tested on: Sirt3 gene; details: HaCaT cells; β-alanine 500 μM and 10 mM; added twice, 24 h apart; vs 1×PBS control; FIG. 2
# Experimental: as §5, §6
"fluorescence intensity of C12FDG (SA-β-Gal activity) ([2]; etoposide-treated dermal fibroblasts, culture supernatant of β-alanine-treated C2C12 cells, 48 hours)","fluorescence intensity of C12FDG (SA-β-Gal activity) ([2]; dermal fibroblasts, etoposide 50 μM for 30 minutes, vs DMSO control)",Structure (SMILES),expression of Sirt1 [1],expression of Sirt1 [3],expression of Sirt6 [4],expression of Sirt3 [5],expression of Sirt3 [6],expression of Sirt1 [7],expression of Sirt3 [8]
decreased,–,"NCCC(=O)O [β-alanine, 3-aminopropanoic acid]",enhanced,enhanced,enhanced,enhanced,enhanced,enhanced,enhanced
–,significantly enhanced,"COc1cc([C@@H]2c3cc4c(cc3[C@@H](O[C@@H]3O[C@@H]5CO[C@@H](C)O[C@H]5[C@H](O)[C@H]3O)[C@H]3COC(=O)[C@H]23)OCO4)cc(OC)c1O [etoposide, reference compound]",–,–,–,–,–,–,–
